Read-outs that look alike come from different tables or passages of the source.
Key:
TPM3-TRKA fusion protein = molecular target: T1, TPM3-TRKA fusion protein (Homo sapiens, UniProt P04629); assay: TPM3-TRKA fusion protein levels in KM12 cells (Western blot); assay type: cell-based; conditions: read-out: Degradation (at 10 nM)
T1 construct: The resulted chimeric proteins always retain the kinase domain of TRK proteins; TPM3 (fusion partner, N-terminal part of tropomyosin alpha-3, P06753); endogenous in cells; host or cells: KM12 colon cancer cells; the other entry of the earlier key: TPM3 (P06753, Tropomyosin alpha-3 chain)
T1 sequence (P04629 with tags, fused parts or gaps): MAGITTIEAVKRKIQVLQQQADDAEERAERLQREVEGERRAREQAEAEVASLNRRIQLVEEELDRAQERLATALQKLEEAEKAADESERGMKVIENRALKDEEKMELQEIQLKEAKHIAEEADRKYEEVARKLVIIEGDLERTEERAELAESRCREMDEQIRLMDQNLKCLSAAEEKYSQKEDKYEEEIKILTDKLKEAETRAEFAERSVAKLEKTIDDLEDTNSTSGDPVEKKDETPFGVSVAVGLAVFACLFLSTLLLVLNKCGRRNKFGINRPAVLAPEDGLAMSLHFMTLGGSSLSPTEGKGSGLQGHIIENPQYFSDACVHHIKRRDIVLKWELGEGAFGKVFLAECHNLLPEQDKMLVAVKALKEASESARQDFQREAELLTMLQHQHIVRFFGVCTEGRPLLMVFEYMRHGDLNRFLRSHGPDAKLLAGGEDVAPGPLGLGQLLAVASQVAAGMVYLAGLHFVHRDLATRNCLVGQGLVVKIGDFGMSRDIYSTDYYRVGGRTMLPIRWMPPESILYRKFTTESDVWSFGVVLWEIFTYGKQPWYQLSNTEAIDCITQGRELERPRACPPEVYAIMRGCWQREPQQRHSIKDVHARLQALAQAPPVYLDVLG
Outline: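 TPM3-TRKA levels were assessed by Western blot with chemiluminescent detection and band densitometry, after SDS-PAGE of BCA-normalized RIPA lysates. Before lysis, KM12 cells received DMSO, compounds or matched control compounds at concentrations including 0.1, 1, 10 and 100 nM and 0.4–30 nM. Exposures lasted 4 h, 8–16 h or 16 h.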

KM12 cells = assay: KM12 cell viability (CellTiter-Glo); assay type: cell-based; conditions: Homo sapiens
Outline: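 Three-day exposure of KM12 cells (5000/well, RPMI 1640 with 10% FBS, 37 °C, 5% CO2) to compound dilution series, 3-fold over 8 or 11 points (top 1000 nM in the 8-point format) or 2-fold over 12. CellTiter-Glo readout, with IC50 fitted by nonlinear least-squares regression.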

[1] = 16 h, TPM3-TRKA degradation in KM12 cells at 10 nM compound, category of percentage degradation
[2] = 72 h, KM12 cell viability, CellTiter-Glo, three days treatment, read-out: IC50

With `O=C1CCC(N2C(=O)c3cccc(CN4CC(CN5CCN(c6cccc(-c7cnc8ccc(N9CCC[C@@H]9c9cccc(F)c9)nn78)n6)CC5)C4)c3C2=O)C(=O)N1` (stereo partly drawn) [TR-294, 2-(2,6-Dioxopiperidin-3-yl)-4-((3-((4-(6-(6-((R)-2-(3-fluorophenyl)pyrrolidin-1-yl)imidazo[1,2-b]pyridazin-3-yl)pyridin-2-yl)piperazin-1-yl)methyl)azetidin-1-yl)methyl)isoindoline-1,3-dione] the percent degradation of TPM3-TRKA protein at 0.01 µM (TPM3-TRKA fusion protein; [1]) was over 80% and the IC50 (KM12 cells; [2]) was 12.5 nM.

With `Cc1nc2cccc(N3CC(CN4CCN(c5cccc(-c6cnc7ccc(N8CCC[C@@H]8c8cccc(F)c8)nn67)n5)CC4)C3)c2c(=O)n1C1CCC(=O)NC1=O` (some centres unmarked) [TR-295] the percent degradation of TPM3-TRKA protein at 0.01 µM (TPM3-TRKA fusion protein; [1]) was 50 to 80% and the IC50 (KM12 cells; [2]) was 30 nM.

`O=C1CCC(n2nnc3cccc(N4CC(CN5CCN(c6cccc(-c7cnc8ccc(N9CCC[C@@H]9c9cccc(F)c9)nn78)n6)CC5)C4)c3c2=O)C(=O)N1` (some centres unmarked) [TR-296] was tested, and the percent degradation of TPM3-TRKA protein at 0.01 µM (TPM3-TRKA fusion protein; [1]) was 50 to 80% and the IC50 (KM12 cells; [2]) was 22 nM.

With `O=C1CCC(n2nnc3cccc(N4CC(CCN5CCN(c6cccc(-c7cnc8ccc(N9CCC[C@@H]9c9cccc(F)c9)nn78)n6)CC5)C4)c3c2=O)C(=O)N1` (some centres unmarked) [TR-297] the percent degradation of TPM3-TRKA protein at 0.01 µM (TPM3-TRKA fusion protein; [1]) was 50 to 80% and the IC50 (KM12 cells; [2]) was 39 nM.

`O=C1CCC(N2Cc3ccc(C#CCN4CCN(c5ccc(C(=O)Nc6n[nH]c7ccc(Cc8cc(F)cc(F)c8)cc67)c(NC6CCOCC6)c5)CC4)cc3C2=O)C(=O)N1` (stereo not drawn) [TR-298, N—(S-(3,5-Difluorobenzyl)-1H-indazol-3-yl)-4-(4-(3-(2-(2,6-dioxopiperidin-3-yl)-3-oxoisoindolin-5-yl)prop-2-yn-1-yl)piperazin-1-yl)-2-((tetrahydro-2/-pyran-4-yl)amino)benzamide] was tested, and the percent degradation of TPM3-TRKA protein at 0.01 µM (TPM3-TRKA fusion protein; [1]) was over 80% and the IC50 (KM12 cells; [2]) was 30 nM.

Compound `O=C1CCC(N2C(=O)c3ccc(NC4CCC(N5CCN(c6ccc(C(=O)Nc7n[nH]c8ccc(Cc9cc(F)cc(F)c9)cc78)c(NC7CCOCC7)c6)CC5)C4)cc3C2=O)C(=O)N1` (centres unmarked) [TR-299, N-(5-(3,5-Difluorobenzyl)-1H-indazol-3-yl)-4-(4-(3-((2-(2,6-dioxopiperidin-3-yl)-1,3-dioxoisoindolin-S-yl)amino)cyclopentyl)piperazin-1-yl)-2-((tetrahydro-2/-pyran-4-yl)amino)benzamide] has a percent degradation of TPM3-TRKA protein at 0.01 µM (TPM3-TRKA fusion protein; [1]) of over 80% and an IC50 (KM12 cells; [2]) of 23 nM.

In the case of `O=C1CCC(N2Cc3cc(N4CC(CN5CCN(c6ccc(C(=O)Nc7n[nH]c8ccc(Cc9cc(F)cc(F)c9)cc78)c(NC7CCOCC7)c6)CC5)C4)ccc3C2=O)C(=O)N1` (stereo not drawn) [TR-300, N—(S-(3,5-Difluorobenzyl)-1H-indazol-3-yl)-4-(4-((1˜ (2˜ (2,6-dioxopiperidin-3-yl)-1-oxoisoindolin-5-yl)azetidin-3-yl)methyl)piperazin-1-yl)-2-((tetrahydro-2H-pyran-4-yl)amino)benzamide], the percent degradation of TPM3-TRKA protein at 0.01 µM (TPM3-TRKA fusion protein; [1]) is reported as 50 to 80% and the IC50 (KM12 cells; [2]) is reported as 53 nM.

In the case of `CC(C1CN(c2ccc3c(c2)C(=O)N(C2CCC(=O)NC2=O)C3=O)C1)N1CCN(c2ccc(C(=O)Nc3n[nH]c4ccc(Cc5cc(F)cc(F)c5)cc34)c(NC3CCOCC3)c2)CC1` (centres unmarked) [TR-301, N-(5-(3,5-difluorobenzyl)-1H-indazol-3-yl)-4-(4-(1-(1-(2-(2,6-dioxopiperidin-3-yl)-1,3-dioxoisoindolin-5-yl)azetidin-3-yl)ethyl)piperazin-1-yl)-2-((tetrahydro-2H-pyran-4-yl)amino)benzamide], the percent degradation of TPM3-TRKA protein at 0.01 µM (TPM3-TRKA fusion protein; [1]) is reported as over 80% and the IC50 (KM12 cells; [2]) is reported as 6 nM.

`O=C1CCC(N2Cc3cc(C4CN(C5CCN(c6cccc(-c7cnc8ccc(N9CCC[C@@H]9c9cccc(F)c9)nn78)n6)CC5)C4)ccc3C2=O)C(=O)N1` (stereo partly drawn) [TR-302, 3-(5-(1-(1-(6-(6-((R)-2-(3-fluorophenyl)pyrrolidin-1-yl)imidazo[1,2-b]pyridazin-3-yl)pyridin-2-yl)piperidin-4-yl)azetidin-3-yl)-1-oxoisoindolin-2-yl)piperidine-2,6-dione] showed a percent degradation of TPM3-TRKA protein at 0.01 µM (TPM3-TRKA fusion protein; KM12, 16 h) of over 80% and an IC50 (KM12 cells; [2]) of 1.7 nM.

`Cn1c(=O)n(C2CCC(=O)NC2=O)c2cccc(C#CCN3CCN(c4ccc(C(=O)Nc5n[nH]c6ccc(Cc7cc(F)cc(F)c7)cc56)c(NC5CCOCC5)c4)CC3)c21` (centres unmarked) [TR-303, N-(5-(3,5˜Difluorobenzyl)-1H-indazol-3-yl)-4-(4-(3-(1-(2,6-dioxopiperidin-3-yl)-3-methyl-2-oxo-2,3˜dihydro-1/7-benzo[d]imidazol-4-yl)prop-2-yn-1-yl)piperazin-1-yl)-2-((tetrahydro-2/-pyran-4-yl)amino)benzamide] showed a percent degradation of TPM3-TRKA protein at 0.01 µM (TPM3-TRKA fusion protein; [1]) of over 80% and an IC50 (KM12 cells; [2]) of 8.4 nM.

Work on `Cn1c(=O)n(C2CCC(=O)NC2=O)c2cccc(CCCCN3CCN(c4ccc(C(=O)Nc5n[nH]c6ccc(Cc7cc(F)cc(F)c7)cc56)c(NC5CCOCC5)c4)CC3)c21` (centres unmarked) [TR-304, N-(5-(3,5-difluorobenzyl)-1H-indazol-3-yl)-4-(4-(4-(1-(2,6-dioxopiperidin-3-yl)-3-methyl-2-oxo-2,3-dihydro-1H-benzo[d]imidazol-4-yl)butyl)piperazin-1-yl)-2-((tetrahydro-2H-pyran-4-yl)amino)benzamide] yielded a percent degradation of TPM3-TRKA protein at 0.01 µM (TPM3-TRKA fusion protein; [1]) of over 80% and an IC50 (KM12 cells; [2]) of 1.5 nM.

`Cn1c(=O)n(C2CCC(=O)NC2=O)c2cccc(CCCN3CCN(c4ccc(C(=O)Nc5n[nH]c6ccc(Cc7cc(F)cc(F)c7)cc56)c(NC5CCOCC5)c4)CC3)c21` (centres unmarked) [TR-305, N-(5-(3,5˜Difluorobenzyl)-1H-indazol-3-yl)-4-(4-(3-(1-(2,6-dioxopiperidin-3-yl)-3-methyl-2-oxo-2,3-dihydro-1H-benzo[d]imidazol-4-yl)propyl)piperazin-1-yl)-2-((tetrahydro-2H-pyran-4-yl)amino)benzamide] showed a percent degradation of TPM3-TRKA protein at 0.01 µM (TPM3-TRKA fusion protein; [1]) of over 80% and an IC50 (KM12 cells; [2]) of 2.5 nM.

`Cn1c(=O)n(C2CCC(=O)NC2=O)c2cccc(C#CCCN3CCN(c4ccc(C(=O)Nc5n[nH]c6ccc(Cc7cc(F)cc(F)c7)cc56)c(NC5CCOCC5)c4)CC3)c21` (centres unmarked) [TR-306, N-(5-(3,5-difluorobenzyl)-1H-indazol-3-yl)-4-(4-(4-(1-(2,6-dioxopiperidin-3-yl)-3-methyl-2-oxo-2,3-dihydro-1H-benzo[d]imidazol-4-yl)but-3-yn-1-yl)piperazin-1-yl)-2-((tetrahydro-2H-pyran-4-yl)amino)benzamide] was tested, and the percent degradation of TPM3-TRKA protein at 0.01 µM (TPM3-TRKA fusion protein; [1]) was over 80% and the IC50 (KM12 cells; [2]) was 4 nM.

With `O=C1CCC(N2C(=O)c3ccc(C4CN(C5CCN(c6cccc(-c7cnc8ccc(N9CCC[C@@H]9c9cccc(F)c9)nn78)n6)CC5)C4)cc3C2=O)C(=O)N1` (stereo partly drawn) [TR-308, 2-(2,6-dioxopiperidin-3-yl)-5-(1-(1-(6-(6-((R)-2-(3-fluorophenyl)pyrrolidin-1-yl)imidazo[1,2-b]pyridazin-3-yl)pyridin-2-yl)piperidin-4-yl)azetidin-3-yl)isoindoline-1,3-dione] the percent degradation of TPM3-TRKA protein at 0.01 µM (TPM3-TRKA fusion protein; KM12, 16 h) was over 80% and the IC50 (KM12 cells; [2]) was 11.8 nM.

Compound `O=C1CCC(N2Cc3ccc(C4CN(C5CCN(c6cccc(-c7cnc8ccc(N9CCC[C@@H]9c9cccc(F)c9)nn78)n6)CC5)C4)cc3C2=O)C(=O)N1` (stereo partly drawn) [TR-309, 3-(6-(1-(1-(6-(6-((R)-2-(3-fluorophenyl)pyrrolidin-1-yl)imidazo[1,2-b]pyridazin-3-yl)pyridin-2-yl)piperidin-4-yl)azetidin-3-yl)-1-oxoisoindolin-2-yl)piperidine-2,6-dione] has a percent degradation of TPM3-TRKA protein at 0.01 µM (TPM3-TRKA fusion protein; KM12, 16 h) of 50 to 80% and an IC50 (KM12 cells; [2]) of 4.3 nM.

Work on `Cn1c(=O)n(C2CCC(=O)NC2=O)c2ccc(OCCN3CCN(c4ccc(C(=O)Nc5n[nH]c6ccc(Cc7cc(F)cc(F)c7)cc56)c(NC5CCOCC5)c4)CC3)cc21` (centres unmarked) [TR-314, N-(5-(3,5˜Difluorobenzyl)-1H-indazol-3-yl)-4-(4-(2-((1-(2,6-dioxopiperidin-3˜yl)-3-methyl-2-oxo-2,3-dihydro-1H-benzo[d]imidazol-5-yl)oxy)ethyl)piperazin-1-yl)-2-((tetrahydro-2H-pyran-4-yl)amino)benzamide] yielded a percent degradation of TPM3-TRKA protein at 0.01 µM (TPM3-TRKA fusion protein; KM12, 16 h) of 50 to 80% and an IC50 (KM12 cells; KM12, 72 h) of 213 nM.

`Cn1c(=O)n(C2CCC(=O)NC2=O)c2cccc(NCCCN3CCN(c4ccc(C(=O)Nc5n[nH]c6ccc(Cc7cc(F)cc(F)c7)cc56)c(NC5CCOCC5)c4)CC3)c21` (stereo not drawn) [TR-315, N—(S-(3,5-difluorobenzyl)-1H-indazol-3-yl)-4-(4-(3-((1-(2,6-dioxopiperidin-3-yl)-3-methyl-2-oxo-2,3-dihydro-1H-benzo[d]imidazol-4-yl)amino)propyl)piperazin-1-yl)-2-((tetrahydro-2H-pyran-4-yl)amino)benzamide] showed a percent degradation of TPM3-TRKA protein at 0.01 µM (TPM3-TRKA fusion protein; [1]) of over 80% and an IC50 (KM12 cells; [2]) of 4.5 nM.

Work on `Cn1c(=O)n(C2CCC(=O)NC2=O)c2ccc(NCCCN3CCN(c4ccc(C(=O)Nc5n[nH]c6ccc(Cc7cc(F)cc(F)c7)cc56)c(NC5CCOCC5)c4)CC3)cc21` (centres unmarked) [TR-316, N-(5-(3,5-difluorobenzyl)-1H-indazol-3-yl)-4-(4-(3-((1-(2,6-dioxopiperidin-3-yl)-3-methyl-2-oxo-2,3-dihydro-1H-benzo[d]imidazol-5-yl)amino)propyl)piperazin-1-yl)-2-((tetrahydro-2H-pyran-4-yl)amino)benzamide] yielded a percent degradation of TPM3-TRKA protein at 0.01 µM (TPM3-TRKA fusion protein; [1]) of over 80% and an IC50 (KM12 cells; [2]) of 2.3 nM.

`O=C1CCC(N2Cc3ccc(N4CC(CN5CCN(c6cccc(-c7cnc8ccc(N9CCC[C@@H]9c9cccc(F)c9)nn78)n6)CC5)C4)cc3C2=O)C(=O)N1` (stereo partly drawn) [TR-317, 3-(6-(3-((4-(6-(6-((R)-2-(3-fluorophenyl)pyrrolidin-1-yl)imidazo[1,2-b]pyridazin-3-yl)pyridin-2-yl)piperazin-1-yl)methyl)azetidin-1-yl)-1-oxoisoindolin-2-yl)piperidine-2,6-dione] gave a percent degradation of TPM3-TRKA protein at 0.01 µM (TPM3-TRKA fusion protein; [1]) of over 80% and an IC50 (KM12 cells; [2]) of 5 nM.

— US12410171B2, “Tropomyosin receptor kinase (TRK) degradation compounds and methods of use” (Cullgen (Shanghai), Inc., priority 2020, dated 2025)
